# Laboratory results: patent publication US10688075B2 (Morgandane Scientific, LLC, priority 2018, dated 2020)
# “And” between values parts separate entries of the source, which are not always exact repeats. Identical values can stand only once. Like-named read-outs stand apart in the source and are kept apart here.
# Experiments:
# [1] = in vivo; cited from earlier work
# [2] = target: P-gp (Homo sapiens, UniProt P08183); conditions: in vitro; cited from earlier work
# [3] = cited from earlier work
# [4] = Drug-drug interaction study of oral verapamil and 0.5-2.5 mg rivaroxaban (Example 4); format: in vivo, human; conditions: 0.5-2.5 mg rivaroxaban with verapamil (100-480 mg)
# Description: A control study is performed to determine the presence of DDIs in patients treated with oral verapamil and rivaroxaban (without aspirin). […]. A representative example of a sample study is found in Example 1.
# [5] = cited from earlier work; remark: listed apart in the source
# [6] = Drug-drug interaction study of oral verapamil, aspirin and rivaroxaban (Example 5); format: in vivo, human; conditions: for Risk of major bleeding: e.g.
# Description: Additional studies are performed to determine the presence of DDIs in patients treated with oral verapamil, aspirin, and rivaroxaban. […] A representative example of such a study is found in Example 1. […] Additionally, these studies show a linear relationship between the pharmacokinetic and the pharmacodynamics of rivaroxaban in subjects with normal renal function and renal insufficiency.
# [7] = Plasma rivaroxaban pharmacokinetics: single 20 mg rivaroxaban alone (Period I) or with 360 mg verapamil at steady state (Period III), subjects with mild renal impairment or normal renal function
# Description: These patients are subjected to various one-time and longitudinal pharmacokinetic (PK) and pharmacodynamic (PD) analyses. […] Cmax and AUC values for each dose are calculated. Patients also undergo a general physical exam to determine overall health and well-being.
# All the pharmacokinetic and pharmacodynamics analyses are repeated on patients receiving this treatment.
# Subjects with either mild renal impairment or with normal renal function were enrolled.
# Renal function of the subjects was determined by measuring creatinine clearance (CLcr) rates. Subjects who had CLcr≥90 mL/min were categorized as having normal renal function whereas subjects who had CLcr 50-79 mL/min were categorized as mildly renally impaired. Blood samples were collected and processed according to the standard protocols.
# [8] = cited from earlier work; remark: listed apart in the source
# [9] = Reported rivaroxaban serious bleeding adverse events by concomitant drug; format: in vivo, human
# Text: 8, 2015, American Heart Association, Scientific Sessions 2015, and published at http://www.abstractsonline.com/pp8/#!/3795/presentation/37668).
# [10] = target: T1, Factor Xa (Homo sapiens, UniProt P00742); assay: Factor Xa activity after rivaroxaban with or without verapamil; format: in vivo
# T1 construct: host or cells: human subjects
# T1 sequence (P00742 235-488 limits assumed): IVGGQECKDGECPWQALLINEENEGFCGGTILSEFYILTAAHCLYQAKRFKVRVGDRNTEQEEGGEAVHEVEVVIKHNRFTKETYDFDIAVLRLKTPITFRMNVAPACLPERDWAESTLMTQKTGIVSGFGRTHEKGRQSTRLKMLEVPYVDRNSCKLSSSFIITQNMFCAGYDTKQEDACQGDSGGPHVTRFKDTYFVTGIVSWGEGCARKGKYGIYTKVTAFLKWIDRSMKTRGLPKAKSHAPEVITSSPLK
# T1 sequence (P00742 41-179 partner limits assumed): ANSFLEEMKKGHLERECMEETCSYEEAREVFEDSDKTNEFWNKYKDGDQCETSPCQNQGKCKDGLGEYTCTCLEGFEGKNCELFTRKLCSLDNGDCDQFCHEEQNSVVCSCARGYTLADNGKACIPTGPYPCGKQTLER
# Text: (§1) Additional pharmacodynamic metrics are also gathered for each patient, including, but not limited to: prothrombin time (using the STA® Neoplastin® method) and Factor Xa activity. Protocols for each of these analyses have been described in Nielsen et al 2015. Renal Function and non-vitamin K oral anticoagulants in comparison with warfarin on safety and efficacy outcomes in atrial fibrillation patients: a systemic review and meta-regression analysis.
# [11] = system: Prothrombin Time; assay: Prothrombin time (STA Neoplastin method) after rivaroxaban with or without verapamil; format: in vivo, human
# Text: As used herein, the term “prothrombin time” (PT) refers to a blood test that measures how long it takes blood to clot. In some embodiments, a prothrombin time test can be used to measure of a patient's haemostasis. In some embodiments, PT can be used to measure the effectiveness or exposure to a blood clotting drug. Persons having skill in the art sometimes interchangeably refer to a PT test as an INR. […] Additionally, PT measurements are subject to variability based on the test reagent and laboratory test ranges determined by each institution.
# as §1, with “Protocols for each of these analyses have been described in Nielsen et al 2015.” left out
# Blood samples were collected and processed according to the standard protocols.
# [12] = Risk of major bleeding from steady state rivaroxaban AUC (FIG. 5); format: in vivo, human
# Description: See Center for Drug Evaluation and Research, Application No. 022406Orig1s000, Clinical Pharmacology and Biopharmaceutics Review(s), at page 36, which is hereby incorporated by reference in its entirety.
# Group “c” represents the average of the three subjects in Group “b” who had the highest AUCinf, which was about 8,143 μg·hr/L. The risk of major bleeding of the subjects in Group “c” were at least 5 times higher compared to the populations in Group “a” and not even visible on this scale.
# [13] = Example 1: 20 mg rivaroxaban + 360 mg verapamil vs rivaroxaban alone
# [14] = Example 4: 0.5-2.5 mg rivaroxaban with verapamil (100-480 mg)
# P-gp, sequence (P08183 whole entry): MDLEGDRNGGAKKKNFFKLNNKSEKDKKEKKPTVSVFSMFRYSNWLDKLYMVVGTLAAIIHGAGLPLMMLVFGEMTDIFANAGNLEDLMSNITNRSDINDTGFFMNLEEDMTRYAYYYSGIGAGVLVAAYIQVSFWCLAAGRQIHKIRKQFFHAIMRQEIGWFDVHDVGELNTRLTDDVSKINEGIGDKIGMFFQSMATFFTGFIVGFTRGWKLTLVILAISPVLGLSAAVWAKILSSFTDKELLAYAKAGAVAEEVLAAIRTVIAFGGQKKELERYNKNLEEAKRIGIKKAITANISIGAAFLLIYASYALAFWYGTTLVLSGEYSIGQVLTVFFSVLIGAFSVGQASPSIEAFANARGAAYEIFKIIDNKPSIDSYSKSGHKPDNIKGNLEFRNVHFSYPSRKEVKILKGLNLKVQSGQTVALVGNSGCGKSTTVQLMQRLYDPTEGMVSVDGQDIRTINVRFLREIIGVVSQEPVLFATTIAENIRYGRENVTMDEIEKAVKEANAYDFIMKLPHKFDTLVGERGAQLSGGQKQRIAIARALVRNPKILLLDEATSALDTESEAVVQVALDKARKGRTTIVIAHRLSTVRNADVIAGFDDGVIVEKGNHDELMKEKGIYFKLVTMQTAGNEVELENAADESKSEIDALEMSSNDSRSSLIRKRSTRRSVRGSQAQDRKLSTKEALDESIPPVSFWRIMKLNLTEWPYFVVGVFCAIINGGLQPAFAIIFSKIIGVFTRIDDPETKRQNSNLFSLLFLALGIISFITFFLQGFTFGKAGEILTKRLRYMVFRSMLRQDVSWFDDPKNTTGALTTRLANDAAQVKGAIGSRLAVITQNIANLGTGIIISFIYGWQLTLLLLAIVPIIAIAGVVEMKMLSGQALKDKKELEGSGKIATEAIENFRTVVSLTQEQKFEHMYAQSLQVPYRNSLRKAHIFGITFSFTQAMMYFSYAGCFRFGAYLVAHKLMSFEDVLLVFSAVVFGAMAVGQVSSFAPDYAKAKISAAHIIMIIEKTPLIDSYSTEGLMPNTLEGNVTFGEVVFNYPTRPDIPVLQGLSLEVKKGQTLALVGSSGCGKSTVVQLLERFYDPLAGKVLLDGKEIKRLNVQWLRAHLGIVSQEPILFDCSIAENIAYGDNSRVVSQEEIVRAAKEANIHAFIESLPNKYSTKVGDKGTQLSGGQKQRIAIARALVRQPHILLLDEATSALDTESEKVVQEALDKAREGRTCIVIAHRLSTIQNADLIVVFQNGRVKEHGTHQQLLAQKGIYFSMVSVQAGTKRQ
smiles,measurement,setting,value
CC[C@H]1OC(=O)[C@H](C)[C@@H](O[C@H]2C[C@@](C)(OC)[C@@H](O)[C@H](C)O2)[C@H](C)[C@@H](O[C@@H]2O[C@H](C)C[C@H](N(C)C)[C@H]2O)[C@](C)(O)C[C@@H](C)C(=O)[C@H](C)[C@@H](O)[C@]1(C)O [erythromycin],Eliminated renally (unchanged),[1],2-15%
same,Inhibition of P-gp-mediated efflux of rivaroxaban across cell monolayers,[2],did not inhibit
CN1CCc2nc(C(=O)N[C@@H]3C[C@@H](C(=O)N(C)C)CC[C@@H]3NC(=O)C(=O)Nc3ccc(Cl)cn3)sc2C1 [edoxaban],Bleeding or other adverse events on co-administration with verapamil,[3]; Mendell et al.,did not lead to any increased bleeding or other adverse events
COc1ccc(NC(=O)c2ccc(C(=N)N(C)C)cc2)c(C(=O)Nc2ccc(Cl)cn2)c1 [betrixaban],"Exposure on concomitant use of P-gp inhibitors, such as verapamil",[3]; BEVYXXA label,increased exposure to betrixaban
O=C(NC[C@H]1CN(c2ccc(N3CCOCC3=O)cc2)C(=O)O1)c1ccc(Cl)s1 [Rivaroxaban],Rivaroxaban plasma concentrations on concomitant verapamil,[4],higher rivaroxaban plasma concentrations
same,Geometric mean AUC of rivaroxaban for 2.5 mg dose,"[5]; 2.5 mg rivaroxaban, no verapamil",165.4 μg·h/L to 551.9
same,Geometric mean AUC of rivaroxaban for 5 mg dose,"[5]; 5 mg rivaroxaban, no verapamil",1064.25 µg·h/L
same,"Average AUC (average geometric mean), Group a","[5]; fed subjects across studies 10989 and 11938, single 20 mg rivaroxaban, FIG. 5","approximately 2,026 μg·hr/L"
same,Upper bound of the 90% confidence interval of the steady state AUC (Label A),"[5]; patients administered 20 mg of rivaroxaban, FIG. 4","about 3,792 μg·hr/L"
same,Upper boundary of the 90% confidence interval of the steady state AUC (Label C),"[5]; single 20 mg dose of rivaroxaban after a meal (study 10989), FIG. 4","about 2,448 μg·hr/L"
same,Risk of major bleeding compared to subjects not concomitantly administered verapamil,"[6]; concomitant oral verapamil, aspirin and rivaroxaban",significantly higher risk of major bleeding
same,Risk of major bleeding,"[6]; single 1.75 mg rivaroxaban and verapamil (e.g., 360 mg), Example 5, from about 1.5-2.0%",not more than 4.5%
same,Risk of major bleeding,"[6]; single 2.5 mg rivaroxaban, verapamil (e.g., 360 mg) and aspirin (100 mg), about 3%",not more than 4.5%
same,CL/F/kg,"[7]; Period I, rivaroxaban alone, Group 2 normal renal function (N = 13), outlier sample excluded, arithmetic mean",0.108 (L/hr)/kg
same,CL/F/kg,"[7]; Period III, rivaroxaban and verapamil, Group 2 normal renal function (N = 10), individual subjects",0.0664 (L/hr)/kg and 0.0705 (L/hr)/kg and 0.0839 (L/hr)/kg
same,CL/F/kg,"[7]; Period III, rivaroxaban and verapamil, Group 2 normal renal function (N = 10), median",0.0664 (L/hr)/kg
same,t1/2,"[7]; human, in vivo, 20 mg",9.44 h
same,Dose eliminated in urine as unprocessed active drug,[1],~36%
same,Dose eliminated through active renal secretion,[1],30%
same,Dose eliminated through glomerular filtration,[1],6%
same,Dose subject to metabolic degradation via the liver's oxidative and hydrolytic pathways,[1],two-thirds
same,Share of rivaroxaban clearance accounted for by CYP3A4,[1],approximately 18%
same,Risk of major bleeding events compared to aspirin alone,[8]; 2.5 mg rivaroxaban (BID) and aspirin,increase the risk of major bleeding events
same,Risk of major bleeding events compared to aspirin alone,[8]; 5 mg dose of rivaroxaban alone,increase the risk of major bleeding events
same,"Clinical outcomes (stroke, myocardial infarction, cardiovascular death) compared to aspirin alone and rivaroxaban 5 mg BID alone","[8]; rivaroxaban 2.5 mg BID and aspirin, patients with cardiovascular disease",reduce several clinical outcomes
same,Association with increased serious bleeding adverse events,[9]; concomitant administration of rivaroxaban and erythromycin,not associated with increased serious bleeding adverse events
same,Share of the reported rivaroxaban serious bleeding adverse events,"[9]; patients concomitantly administered verapamil and rivaroxaban, who account for only 22% of the total population receiving rivaroxaban",30%
same,Factor Xa inhibition on concomitant verapamil,[10]; [13],increased Factor Xa inhibition
same,Factor Xa inhibition on concomitant verapamil,[10]; [14],increased Factor Xa inhibition
same,PT on concomitant verapamil,[11]; [13],prolonged PT
same,PT on concomitant verapamil,[11]; [14],prolonged PT
same,Relationship between plasma concentrations of rivaroxaban and PT (pharmacokinetics vs pharmacodynamics),"[11]; subjects with normal renal function and mild renal insufficiency, Day 1 and Day 15, FIGS. 1 and 2",clear linear relationship
same,"Risk of major bleeding, Group a","[12]; fed subjects, single 20 mg rivaroxaban, AUC about 2,026 μg·hr/L, FIG. 5",about 3%
same,"Risk of major bleeding compared to Group a, Group b","[12]; mild renal impairment, single 20 mg rivaroxaban and 360 mg verapamil",2.5 times higher
same,"Risk of major bleeding compared to Group a, Group c",[12]; three subjects of Group b with the highest AUCinf,at least 5 times higher
